“And” between values parts separate entries of the source, which are not always exact repeats. Equal values may be shown once.
What was measured:
[1] = system: urease; conditions: prior art; cited from earlier work
[2] = 25° C., water partial pressure 12.73 mm of Hg; cited from earlier work
[3] = Stability of TPTA in UAN (31-0-0) at 25° C. (HPLC); format: physicochemical; conditions: for % original TPTA remaining: UAN (31-0-0)
Description: A sample containing 1 weight percent TPTA was prepared by dissolving 1 g of TPTA in 99 g of 31-0-0 having the composition given in Table I, supra, and an initial pH of 8.1. The sample was maintained at room temperature (25° C.) and analyzed periodically for TPTA by HPLC. The results of the kinetic study are given in Table V infra and as noted supra plotted in FIG. 4 along with the first-order rate equation (solid line in FIG. 4) which was determined by linear regression.

[4] = system: urease; assay: Urease inhibition tests with TPTA and PPDA in fluid fertilizers, banded soil system (urease-active Hastings silt loam); format: biochemical; conditions: for average % urea unhydrolyzed, 3 days / % urea unhydrolyzed, 3 days: 3 days incubation at 25° C.; for average % urea unhydrolyzed, 3 days / average % urea unhydrolyzed, 6 days: average of A and B samples; for % urea unhydrolyzed, 3 days / % urea unhydrolyzed, 6 days: single sample; for average % urea unhydrolyzed, 6 days / % urea unhydrolyzed, 6 days: 6 days incubation at 25° C.
Description: Samples of UAN (31-0-0), 1 g, and (36-0-0), 0.66 g containing approximately 0.38 g urea and 0.041 g of TPTA were prepared by dissolving solid TPTA in 31-0-0 and 36-0-0 of the compositions shown in Table I, supra. Identical samples containing PPDA and without either inhibitor were prepared to serve as references for purposes of data comparison.
Urease-active soil (Hastings silt loam) was moistened to a moisture content of 20 percent and preincubated at room temperature for two days. Plexiglass containers (6×6×6 cm) were one-half filled with soil and packed to a bulk density of 1.0 g/cm^3. The 31-0-0 and 36-0-0 samples containing TPTA and PPDA as well as samples containing no inhibitor were distributed evenly in a narrow band 6 cm along the soil surface. The containers were filled with soil and again packed to a bulk density of 1.0 g/cm^3. The containers were incubated at 25° C. for the desired reaction period. After incubation the soil from each container was thoroughly mixed, and a 10-g sample was extracted with 100 mL of 2M KCl containing 5 ppm phenylmercuric acetate to prevent urea hydrolysis during handling [L. A. Douglass and J. M. Bremner, Soil Sci. Soc. Am. Proc. 34, 859-862 (1970)]. The urea in the extracts was determined colorimetrically as a measure of unhydrolyzed urea. The results of three-day and six-day incubation tests are illustrated in Table II infra; and as noted supra, plotted in FIG. 1.

[5] = Stability of TPTA in UAN (36-0-0) at 25° C. (HPLC); format: physicochemical; conditions: for % original TPTA remaining: UAN (36-0-0)
Description: A sample containing 1 weight percent TPTA was prepared by dissolving 1 g of TPTA in 99 g of 36-0-0 having the composition given in Table I, supra, and an initial pH of 7.4. The sample was maintained at room temperature (25° C.) and analyzed periodically for TPTA by HPLC.
The results of this kinetic study are given in Table V supra, and as noted supra, plotted in FIG. 4 along with the first-order rate equation (solid line in FIG. 4) which was determined by linear regression.

[6] = Stability of TPTA in 40 wt % urea solution (HPLC); format: physicochemical; conditions: 25° C.; for % original TPTA remaining: 40 wt % urea solution
Description: A 40 weight percent urea solution (initial pH=8.5) was prepared by dissolving 80 g of urea in 120 g of water. A sample containing 1 weight percent TPTA was prepared by dissolving 1 g of TPTA in 99 g of the 40 weight percent urea solution. The sample was maintained at room temperature (25° C.) and analyzed periodically for TPTA by HPLC. The results of this kinetic study are given in Table IV infra and as noted supra plotted in FIG. 3 along with the first-order rate equation (solid line FIG. 3) which was determined by linear regression.

NP(N)(N)=S [TPTA, thiophosphoryl triamide]
urease inhibition (in words) [1]: comparable and in some cases more effective than PPDA | reaction half-life in solid mixtures with urea [2]: 1.6 days | reaction half-life in the 31-0-0 solution ([3]; 1 wt % TPTA, initial pH 8.1, first-order): 93 days | % original TPTA remaining ([3]; time 0.00 days): 100.00% | % original TPTA remaining ([3]; time 1.22 days): 100.00% | % original TPTA remaining ([3]; time 5.22 days): 97.60% | % original TPTA remaining ([3]; time 7.13 days): 100.00% | % original TPTA remaining ([3]; time 9.09 days): 99.55% | % original TPTA remaining ([3]; time 12.07 days): 101.78% | % original TPTA remaining ([3]; time 14.22 days): 100.47% | % original TPTA remaining ([3]; time 16.01 days, 23054.4 min): 95.59% and 95.43% | % original TPTA remaining ([3]; time 20.05 days): 89.05% | % original TPTA remaining ([3]; time 26.05 days): 95.55% | % original TPTA remaining ([3]; time 40.17 days): 79.49% | % original TPTA remaining ([3]; time 47.14 days): 79.62% | % original TPTA remaining ([3]; time 61.08 days): 74.35% | % original TPTA remaining ([3]; time 64.99 days): 63.03% | % original TPTA remaining ([3]; time 71.70 days): 68.55% | % original TPTA remaining ([3]; time 82.71 days, 119102 min): 43.85% | % original TPTA remaining ([3]; time 90.71 days, 130622 min): 52.17% | % original TPTA remaining ([3]; time 96.75 days): 51.55% | % original TPTA remaining ([3]; time 103.71 days): 52.04% | % original TPTA remaining ([3]; time 111.71 days): 47.46% | average % urea unhydrolyzed, 3 days ([4]; UAN (31-0-0)): 97.90% | % urea unhydrolyzed, 3 days ([4]; UAN (31-0-0)): 101.90% and 93.89% | average % urea unhydrolyzed, 6 days ([4]; UAN (31-0-0)): 48.48% | % urea unhydrolyzed, 6 days ([4]; UAN (31-0-0)): 47.75% and 49.21% | average % urea unhydrolyzed, 3 days ([4]; UAN (36-0-0)): 88% and 87.63% | % urea unhydrolyzed, 3 days ([4]; UAN (36-0-0)): 91.03% and 84.24% | average % urea unhydrolyzed, 6 days ([4]; UAN (36-0-0)): 47.82% and 48% | % urea unhydrolyzed, 6 days ([4]; UAN (36-0-0)): 44.37% and 51.28% | amount of unhydrolyzed urea in the soil relative to PPDA treatment ([4]; after six days): approximately four times that of the PPDA treatment | reaction half-life in the 36-0-0 solution ([5]; 1 wt % TPTA, initial pH 7.4, first-order): 43 days | % original TPTA remaining ([5]; time 0.00 days): 100.00% | % original TPTA remaining ([5]; time 1.22 days): 100.00% | % original TPTA remaining ([5]; time 5.22 days): 93.60% | % original TPTA remaining ([5]; time 7.13 days): 97.15% | % original TPTA remaining ([5]; time 9.09 days): 81.12% | % original TPTA remaining ([5]; time 12.07 days): 82.21% | % original TPTA remaining ([5]; time 14.22 days): 84.30% | % original TPTA remaining ([5]; time 16.01 days, 23054.4 min): 79.90% and 73.86% | % original TPTA remaining ([5]; time 20.05 days): 70.87% | % original TPTA remaining ([5]; time 26.05 days): 72.43% | % original TPTA remaining ([5]; time 40.17 days): 43.14% | % original TPTA remaining ([5]; time 47.14 days): 42.94% | % original TPTA remaining ([5]; time 61.08 days): 32.25% | % original TPTA remaining ([5]; time 64.99 days): 41.41% | % original TPTA remaining ([5]; time 71.70 days): 31.14% | % original TPTA remaining ([5]; time 82.71 days, 119102 min): 29.60% | % original TPTA remaining ([5]; time 90.71 days, 130622 min): 20.67% | % original TPTA remaining ([5]; time 96.75 days): 25.07% | % original TPTA remaining ([5]; time 103.71 days): 21.73% | % original TPTA remaining ([5]; time 111.71 days): 13.09% | reaction half-life in 40 weight percent urea solution ([6]; 1 wt % TPTA, initial pH 8.5, first-order): 168 days | % original TPTA remaining ([6]; time 0.00 days): 100.00% | % original TPTA remaining ([6]; time 9.04 days): 94.96% | % original TPTA remaining ([6]; time 9.25 days): 94.83% | % original TPTA remaining ([6]; time 10.21 days): 93.97% | % original TPTA remaining ([6]; time 13.05 days): 94.25% | % original TPTA remaining ([6]; time 14.99 days): 89.47% | % original TPTA remaining ([6]; time 17.22 days): 88.78% | % original TPTA remaining ([6]; time 20.27 days): 91.44% | % original TPTA remaining ([6]; time 22.12 days): 87.44% | % original TPTA remaining ([6]; time 24.07 days): 88.80% | % original TPTA remaining ([6]; time 29.19 days): 87.81% | % original TPTA remaining ([6]; time 31.23 days): 87.90% | % original TPTA remaining ([6]; time 34.23 days): 88.52% | % original TPTA remaining ([6]; time 36.03 days): 86.26% | % original TPTA remaining ([6]; time 38.19 days): 91.36% | % original TPTA remaining ([6]; time 41.19 days): 88.11% | % original TPTA remaining ([6]; time 43.10 days): 78.25% | % original TPTA remaining ([6]; time 45.07 days): 79.73% | % original TPTA remaining ([6]; time 48.04 days): 76.59% | % original TPTA remaining ([6]; time 50.20 days): 78.68% | % original TPTA remaining ([6]; time 52.00 days, 74880 min): 76.66% and 76.56% | % original TPTA remaining ([6]; time 56.04 days): 76.52% | % original TPTA remaining ([6]; time 62.02 days): 76.02% | % original TPTA remaining ([6]; time 76.14 days, 109642 min): 76.78% | % original TPTA remaining ([6]; time 83.11 days, 119678 min): 70.05% | % original TPTA remaining ([6]; time 97.06 days, 139766 min): 65.19%
